Assay results: patent publication US20230101236A1, “COSMETIC COMPOSITION” (GIVAUDAN SA, priority 2020, published 2023)

System: skin microbiome
Test: Conversion of crocin to crocetin by the skin microbiome (in vitro)
Assay type: in vitro ADME
Method: Sampling of skin microbiome was performed on 7 volunteers with a sterile gauze impregnated with NaCl in 5 areas: forehead, cheek, nose, neck, forearm. All samples were combined to obtain a representative skin microbiota composition. The thus obtained microbiome was cultured in liquid medium (buffered HT medium) at 30° C. in the presence of crocin. Supernatants were collected regularly and analyzed by HPLC-MS to detect crocin and crocetin.

Row | concentration, % of maximum concentration detected (skin microbiome culture with crocin, 42 h) [%] | concentration, % of maximum concentration detected (skin microbiome culture with crocin, 66 h) [%] | concentration, % of maximum concentration detected (skin microbiome culture with crocin, 90 h) [%] | concentration, % of maximum concentration detected (skin microbiome culture with crocin, 162 h) [%] | concentration, % of maximum concentration detected (skin microbiome culture with crocin, 186 h) [%] | concentration, % of maximum concentration detected (skin microbiome culture with crocin, 210 h) [%] | time for complete transformation to crocetin (human) [h] | concentration, % of maximum concentration detected (human, 0 h) [%] | concentration, % of maximum concentration detected (human, 18 h) [%] | concentration, % of maximum concentration detected (human, 42 h) [%] | concentration, % of maximum concentration detected (human, 66 h) [%] | concentration, % of maximum concentration detected (human, 90 h) [%] | SMILES
1 | 0.7 | 7.9 | 30.5 | 65.3 | 101.3 | 101.3 | – | – | – | – | – | – | CC(/C=C/C=C(\C)C(=O)O)=C\C=C\C=C(C)\C=C\C=C(/C)C(=O)O [Crocetin]
2 | – | – | – | – | – | – | ≤ 210 | 100 | 100 | 47.5 | 2.9 | 0.1 | CC(/C=C/C=C(\C)C(=O)O[C@@H]1O[C@H](CO[C@@H]2O[C@H](CO)[C@@H](O)[C@H](O)[C@H]2O)[C@@H](O)[C@H](O)[C@H]1O)=C\C=C\C=C(C)\C=C\C=C(/C)C(=O)O[C@@H]1O[C@H](CO[C@@H]2O[C@H](CO)[C@@H](O)[C@H](O)[C@H]2O)[C@@H](O)[C@H](O)[C@H]1O [Crocin]
